According to PubChem BioAssay (NCI):
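Briefly, cells in 96-well plates were exposed to five compound concentrations for 48 h, and endpoints were estimated by linear interpolation. GI50: concentration for 50% inhibition of growth. The concentration for full growth arrest is given as TGI.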

Columns and labels:
Experiment in all cases: DTP human tumour cell line panel, 48 h
[1] = system: HOP-92 NSCLC
[2] = system: HS 578T breast
[3] = system: RPMI-8226 leukemia
[4] = system: CAKI-1 renal
[5] = system: SW-620 colon
[6] = system: UO-31 renal
[7] = system: HL-60(TB) leukemia
[8] = system: LOX IMVI melanoma
[9] = system: OVCAR-4 ovarian
[10] = system: SF-268 CNS
[11] = system: HOP-62 NSCLC
[12] = system: HT29 colon
[13] = system: KM12 colon
[14] = system: NCI-H522 lung
[15] = system: IGROV1 ovarian
[16] = system: CCRF-CEM leukemia
[17] = system: OVCAR-3 ovarian
[18] = system: NCI-H460 lung
[19] = system: UACC-62 melanoma
[20] = system: ACHN renal
[21] = system: M14 melanoma
[22] = system: TK-10 renal
[23] = system: OVCAR-8 ovarian
[24] = system: HCT-116 colon
[25] = system: BT-549 breast
[26] = system: MCF7 breast
[27] = system: 786-0 renal
[28] = system: DU-145 prostate
[29] = system: T-47D breast
[30] = system: SF-539 CNS
[31] = system: SF-295 CNS
[32] = system: MALME-3M melanoma
[33] = system: HCC-2998 colon
[34] = system: SK-MEL-28 melanoma
[35] = system: UACC-257 melanoma
[36] = system: SK-MEL-5 melanoma
[37] = system: OVCAR-5 ovarian
[38] = system: MDA-MB-435
[39] = system: SK-MEL-2 melanoma
[40] = system: EKVX NSCLC
[41] = system: NCI-H226 lung
[42] = system: NCI-H23 lung
[43] = system: SK-OV-3 ovarian
[44] = system: K-562 leukemia
[45] = system: A549 NSCLC
[46] = system: MDA-MB-231 breast
[47] = system: SN12C renal
[48] = system: HCT-15 colon
[49] = system: SNB-75 CNS
[50] = system: U251 CNS
[51] = system: SNB-19 CNS
[52] = system: RXF 393 renal
[53] = system: MOLT-4 leukemia
[54] = system: COLO 205 colon
[55] = system: MDA-MB-468 breast
[56] = system: SR leukemia
[57] = system: A498 renal
[58] = system: PC-3 prostate

For `COc1cc(NC(=O)c2cc(-c3ccc(F)cc3F)ccc2O)cc(OC)c1OC`, the GI50 [1] was 3.49 µM, the TGI [1] was 15.9 µM and the GI50 [2] was 5.2 µM. It also gave a TGI [2] of 26.9 µM, a GI50 [3] of 3.4 µM and a TGI [3] of 45.9 µM. It also gave a GI50 [4] of 7.67 µM, a TGI [4] of 38.8 µM and a GI50 [5] of 14.2 µM. The TGI [5] was 29 µM, the GI50 [6] was 5.24 µM and the TGI [6] was 23.5 µM. It also gave a GI50 [7] of 6.09 µM, a TGI [7] greater than 100 µM and a GI50 [8] of 13 µM. For the same molecule, the TGI [8] was 27.3 µM, the GI50 [9] was 4.45 µM and the TGI [9] was 31.4 µM. The GI50 [10] was 6.03 µM, the TGI [10] was 28.3 µM and the GI50 [11] was 13.4 µM. It also gave a TGI [11] of 33.2 µM, a GI50 [12] of 17.9 µM and a TGI [12] of 33.6 µM. The GI50 [13] was 10.2 µM, the TGI [13] was 23.3 µM and the GI50 [14] was 3.19 µM. For the same molecule, the TGI [14] was 13.7 µM, the GI50 [15] was 10.4 µM and the TGI [15] was 30.9 µM. The GI50 [16] was 6.23 µM, the TGI [16] was 29.7 µM and the GI50 [17] was 5.49 µM. For the same molecule, the TGI [17] was 32.4 µM, the GI50 [18] was 6.51 µM and the TGI [18] was 20.2 µM. The GI50 [19] was 3.52 µM, the TGI [19] was 13.4 µM and the GI50 [20] was 16.2 µM. The TGI [20] was 66.3 µM, the GI50 [21] was 15.3 µM and the TGI [21] was 31.8 µM. For the same molecule, the GI50 [22] was 12 µM, the TGI [22] was 45.4 µM and the GI50 [23] was 13 µM. For the same molecule, the TGI [23] was greater than 100 µM, the GI50 [24] was 13.7 µM and the TGI [24] was 32.2 µM. The GI50 [25] was 5.29 µM, the TGI [25] was 22.6 µM and the GI50 [26] was 9.64 µM. It also gave a TGI [26] of 43.1 µM, a GI50 [27] of 19.4 µM and a TGI [27] of 46.6 µM. For the same molecule, the GI50 [28] was 13.9 µM, the TGI [28] was 39.4 µM and the GI50 [29] was 2.73 µM. It also gave a TGI [29] of 9.31 µM, a GI50 [30] of 12.4 µM and a TGI [30] of 26.5 µM. It also gave a GI50 [31] of 15.6 µM, a TGI [31] of 32.6 µM and a GI50 [32] of 11.4 µM. The TGI [32] was 25.9 µM, the GI50 [33] was 11.9 µM and the TGI [33] was 25.4 µM. For the same molecule, the GI50 [34] was 8.98 µM, the TGI [34] was 22.3 µM and the GI50 [35] was 10.2 µM. The TGI [35] was 22.4 µM, the GI50 [36] was 3.16 µM and the TGI [36] was 10.6 µM. It also gave a GI50 [37] of 19.3 µM, a TGI [37] of 43.4 µM and a GI50 [38] of 6.27 µM. It also gave a TGI [38] of 19.4 µM, a GI50 [39] of 3.01 µM and a TGI [39] of 13.9 µM. For the same molecule, the GI50 [40] was 12.3 µM, the TGI [40] was 48.3 µM and the GI50 [41] was 6.92 µM. For the same molecule, the TGI [41] was 30 µM, the GI50 [42] was 4.75 µM and the TGI [42] was 18.9 µM. The GI50 [43] was 8.43 µM, the TGI [43] was 23.9 µM and the GI50 [44] was 5.1 µM. The TGI [44] was greater than 100 µM, the GI50 [45] was 12.7 µM and the TGI [45] was 35.1 µM. It also gave a GI50 [46] of 18.8 µM, a TGI [46] of 51.2 µM and a GI50 [47] of 6.12 µM. For the same molecule, the TGI [47] was 22.1 µM, the GI50 [48] was 5.63 µM and the TGI [48] was 24.9 µM. It also gave a GI50 [49] of 6.57 µM, a TGI [49] of 23.8 µM and a GI50 [50] of 11 µM. For the same molecule, the TGI [50] was 27.1 µM, the GI50 [51] was 6.63 µM and the TGI [51] was 29.5 µM. The GI50 [52] was 2.86 µM, the TGI [52] was 16.8 µM and the GI50 [53] was 5.9 µM. For the same molecule, the TGI [53] was 36.4 µM, the GI50 [54] was 18.2 µM and the TGI [54] was 34.4 µM. The GI50 [55] was 3.98 µM, the TGI [55] was 17 µM and the GI50 [56] was 4.2 µM. The TGI [56] was 40.5 µM, the GI50 [57] was 12.1 µM and the TGI [57] was 25.8 µM. It also gave a GI50 [58] of 12.5 µM and a TGI [58] of 61.5 µM.
